Reference: patent US20080311589A1, “METHOD OF HIGH-THROUGHPUT SCREENING OF MOLECULES AND COMPOUNDS FOR THEIR EFFECTS ON BIOLOGICAL AND CHEMICAL PROCESSES” (priority 1999, published 2008)

System: Mv1Lu mink lung epithelial cells
Test: 6144 well BrdU cytoblot
Format: cell-based
Conditions: approximately 6000 nanowells
Description: FIG. 4. BrdU incorporation is detected in 6144 well plates with a cytoblot. (a) The actual size of the wells of a 6144 well plate (nanowells; You et al. Chem. Biol. 4:969-975. 1997) is shown. (b) 25× magnification of the blot shown in (a). The indicated number of cells (Mv1Lu) were seeded in […] volumes in duplicate in 1% mink medium with or without 10 μM BrdU or 400 pM TGF-β, as indicated. The cells were cultured for 24 hours at 37° C. with 5% CO2 and then a 6144 well cytoblot was performed (see protocols). (c) Two separate nanowell plates (You et al. Chem. Biol. 4:969-975. 1997) were seeded with 20,000 Mv1Lu cells/mL in 1% mink medium with or without 500 pM TGF-13. After 26 hours at 37° C. with 5% CO2 BrdU was added to a final concentration of 10 μM. The cells were incubated for an additional 18 hours at 37° C. with 5% CO2 and then a 6144 well cytoblot was performed (see protocols).
The anti-BrdU cytoblot assay was then tested for its ability to detect the inhibition of BrdU uptake in a plate containing approximately 6000 arrayed “nanowells” (You et al. Chem Biol 4:969-975. 1997. Incorporated herein by reference). […] The following protocol provides experimental detail.
The reagents to be tested were prepared in 1536 well plates with one or more test compound per well. […]

For “TGF-β: anti-mitogen transforming growth factor β, multifunctional polypeptide signaling factor”, the BrdU incorporation was “prevented BrdU incorporation”.
